Measurements taken from PubChem BioAssay AID1918935 (Molecular Pharmacology Branch, DTP, NCI, 2023).

Tested on: 324938-238-R-J1-PDC complex spheroid viability
Assay: Anticancer human tumor 324938-238-R-J1-PDC patient-derived bladder carcinoma cell line growth inhibition
Conditions: for IC50: curve of first compound; for viability, T/C: stronger effect = lower value
Text: Multicellular complex tumor spheroid response to LSD1 Inhibitor Iadademstat in combination with a variety of drugs and investigational agents in selected tumor cell lines
The current study was undertaken to assess response to LSD1 inhibitors in combination with standard-of-care drugs and investigational agents in solid tumor complex spheroid models as well as in the K-562 leukemia. Complex spheroids include a stromal component modeled by human endothelial cells (HUVEC) and fibroblasts modeled by human mesenchymal stem cells (MSCs). The concentration ranges selected for each drug and investigational agent were based upon clinically achievable concentrations if the clinical Cmax of the agent was known.
Compounds. The drugs and investigational agents used in this study are listed on Table 1. All of the agents used, including staurosporine (NSC755774) and gemcitabine (NSC613327), were obtained from the Developmental Therapeutics Program, NCI. FDA-approved anticancer drugs are available from the NCI at http://dtp.nci.nih.gov/branches/dscb/oncology_drugset_explanation.html. Drugs and investigational agents were >95% pure by proton nuclear magnetic resonance (NMR) and liquid chromatography/mass spectrometry (LC/MS). Stock solutions were prepared at 400x in DMSO, stored at -70 degrees C, and diluted in fresh medium prior to their use. The final concentration of DMSO in cell culture wells never exceeded 0.25% (v/v). The FDA-approved anticancer drug set is available from the Developmental Therapeutics Program at https://dtp.cancer.gov/organization/dscb/obtaining/available_plates.htm. All drugs and investigational agents were tested over a range starting from a high concentration at or near the clinical Cmax and decreasing in half-log increments. If the clinical Cmax for an agent had not been determined, the highest concentration tested was 10 microM.
Cell Lines. The patient-derived cancer cell (PDC) lines: 292921-168-R-J2-PDC, K24384-001-R-PDC, and 521955-158-R2-J5-PDC pancreatic carcinomas, 556581-035-R-J1 ovarian carcinoma, 324938-238-R-J1-PDC, 855422-203-R-J1-PDC and 883617-216-R-J1-PDC urothelial bladder carcinomas, 743489-274-T-PDC renal cell carcinoma, 138582-R-J1 Merkel cell tumor, K60290-347-R-J1 and K57222-313-R-J1-PDC glioblastomas, 653999-131-R-J2-PDC, LG0703-F948-PDC, and 349418-098-R-PDC non-small cell lung carcinomas, 885512-296-R-J2-PDC, 171881-019-R-J1-PDC breast carcinomas and 186277-243-T-J2-PDC and 233499-124-R-J2-PDC colon carcinomas were obtained from the NCI Patient-Derived Models Repository (PDMR, https://pdmr.cancer.gov). The established cell lines NCI/ADR-RES (RRID:CVCL_14520 and OVCAR-5 (RRID:CVCL_1628) ovarian carcinomas, 786-O (RRID:CVCL_1051) and A498 (RRID:CVCL_A498) renal cell carcinoma, NCI-H211 (ATCC, cat. CRL-5824; RRID:CVCL_1529), NCI-H196 (ATCC, cat. CRL-5823, RRID:CVCL_1509), SW 1271 (ATCC, cat. CRL-2177, RRID:CVCL_1716) and NCI-H1876 (ATCC, cat. CRL-5902, RRID:CVCL_1503) small cell lung carcinomas, MDA-MB-231 (RRID:CVCL_0062) and MDA-MB-468 (RRID:CVCL_0419)breast carcinomas (10-12). Pooled donor human umbilical vein endothelial cells (HUVEC, Lonza, cat. CC-2519) and human mesenchymal stem cells (hMSC, Lonza, cat. PT-2501) were purchased from Lonza (Walkersville, MD).
Cell Culture. All cells were maintained in an incubator at 37 degrees C and 5% CO2 with 95% humidity. The PDC lines were cultured according to standard operating procedures established by the NCI PDMR (https://pdmr.cancer.gov). Briefly all PDCs were thawed and cultured in Matrigel-coated flasks prepared with a working solution of 1X Ham's F-12 nutrient mix, without supplementation (Invitrogen, Waltham, MA, cat. 11765054), 100 U/mL penicillin-streptomycin (Invitrogen, cat. 15140122), and 2.5% Matrigel (Corning Inc., Corning, NY, cat. 354248) for the first three passages. […]

[1] = second compound 0.1 µM, first compound 0.00949 µM
[2] = second compound 0.1 µM, first compound 0.03 µM
[3] = second compound 0.1 µM, first compound 0.0949 µM
[4] = second compound 0.1 µM, first compound 0.3 µM
[5] = second compound 0.1 µM, first compound 0.949 µM
[6] = second compound 0.1 µM, first compound 3 µM
[7] = second compound 0.316 µM, first compound 0.00949 µM
[8] = second compound 0.316 µM, first compound 0.03 µM
[9] = second compound 0.316 µM, first compound 0.0949 µM
[10] = second compound 0.316 µM, first compound 0.3 µM
[11] = second compound 0.316 µM, first compound 0.949 µM
[12] = second compound 0.316 µM, first compound 3 µM
[13] = second compound 1 µM, first compound 0.00949 µM
[14] = second compound 1 µM, first compound 0.03 µM
[15] = second compound 1 µM, first compound 0.0949 µM
[16] = second compound 1 µM, first compound 0.3 µM
[17] = second compound 1 µM, first compound 0.949 µM
[18] = second compound 1 µM, first compound 3 µM
[19] = second compound 3.16 µM, first compound 0.00949 µM
[20] = second compound 3.16 µM, first compound 0.03 µM
[21] = second compound 3.16 µM, first compound 0.0949 µM
[22] = second compound 3.16 µM, first compound 0.3 µM
[23] = second compound 3.16 µM, first compound 0.949 µM
[24] = second compound 3.16 µM, first compound 3 µM
[25] = second compound 10 µM, first compound 0.00949 µM
[26] = second compound 10 µM, first compound 0.03 µM
[27] = second compound 10 µM, first compound 0.0949 µM
[28] = second compound 10 µM, first compound 0.3 µM
[29] = second compound 10 µM, first compound 0.949 µM
[30] = second compound 10 µM, first compound 3 µM
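Further: spheroids also contain HUVEC and human MSCs and agents combined with iadademstat; spheroids exposed to agents for 7 days before readout.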

Nc1ccccc1NC(=O)c1ccc(CNC(=O)OCc2cccnc2)cc1 + NC1CC1c1ccc(-c2cccc(O)c2)cc1 was tested, and the IC50 (second compound 0.1 µM) was 0.501 µM, the IC50 (second compound 0.316 µM) was 0.437 µM and the IC50 (second compound 1 µM) was 0.487 µM. It also gave an IC50 (second compound 3.16 µM) of 0.489 µM, an IC50 (second compound 10 µM) of 0.401 µM and a viability, T/C [1] of 86.6%. For the same molecule, the viability, T/C [2] was 87.6%, the viability, T/C [3] was 70.2% and the viability, T/C [4] was 62.6%. It also gave a viability, T/C [5] of 36.7%, a viability, T/C [6] of 7.26% and a viability, T/C [7] of 83.8%. It also gave a viability, T/C [8] of 80.1%, a viability, T/C [9] of 71.7% and a viability, T/C [10] of 56.1%. It also gave a viability, T/C [11] of 35.9%, a viability, T/C [12] of 5.68% and a viability, T/C [13] of 67.2%. The viability, T/C [14] was 76%, the viability, T/C [15] was 66.7% and the viability, T/C [16] was 56.3%. It also gave a viability, T/C [17] of 39.5%, a viability, T/C [18] of 3.75% and a viability, T/C [19] of 76.7%. It also gave a viability, T/C [20] of 67%, a viability, T/C [21] of 70.4% and a viability, T/C [22] of 59.2%. The viability, T/C [23] was 37.6%, the viability, T/C [24] was 5.73% and the viability, T/C [25] was 63.2%. The viability, T/C [26] was 66.1%, the viability, T/C [27] was 68.2% and the viability, T/C [28] was 51.2%. For the same molecule, the viability, T/C [29] was 36.4% and the viability, T/C [30] was 6.9%.
In the case of CCN(c1cc(-c2ccc(CN3CCOCC3)cc2)cc(C(=O)NCc2c(C)cc(C)[nH]c2=O)c1C)C1CCOCC1 + NC1CCC(NC2CC2c2ccccc2)CC1, the IC50 (second compound 0.1 µM) is reported as > 3 µM, the IC50 (second compound 0.316 µM) is reported as > 3 µM and the IC50 (second compound 1 µM) is reported as > 3 µM. The IC50 (second compound 3.16 µM) was > 3 µM, the IC50 (second compound 10 µM) was > 3 µM and the viability, T/C [1] was 76.4%. The viability, T/C [2] was 75.4%, the viability, T/C [3] was 76.7% and the viability, T/C [4] was 77.6%. The viability, T/C [5] was 75.8%, the viability, T/C [6] was 77.6% and the viability, T/C [7] was 74.5%. The viability, T/C [8] was 83.1%, the viability, T/C [9] was 70.5% and the viability, T/C [10] was 74.8%. The viability, T/C [11] was 80.4%, the viability, T/C [12] was 75.1% and the viability, T/C [13] was 74.5%. The viability, T/C [14] was 74.7%, the viability, T/C [15] was 71.5% and the viability, T/C [16] was 81%. The viability, T/C [17] was 72.8%, the viability, T/C [18] was 81.7% and the viability, T/C [19] was 67.8%. The viability, T/C [20] was 74.7%, the viability, T/C [21] was 71.5% and the viability, T/C [22] was 74%. It also gave a viability, T/C [23] of 72.9%, a viability, T/C [24] of 69% and a viability, T/C [25] of 72.1%. It also gave a viability, T/C [26] of 68.7%, a viability, T/C [27] of 76.5% and a viability, T/C [28] of 70.5%. The viability, T/C [29] was 66.4% and the viability, T/C [30] was 74.2%.
